# Measured values reported in patent US10822299B2, “Compounds and methods for hematopoietic regeneration” (The Regents of the University of California, priority 2016, dated 2020).
# Experiments:
# [1] = biological target: T1, PTPRS catalytic domains (D1D2) (Homo sapiens, UniProt Q13332); assay: In vitro phosphatase assay (modified Malachite Green Assay); type: biochemical; conditions: for IC50: 50 nM PTPRS, 100 uM Tyr Phosphopeptide, 15 min preincubation
# T1 construct: The two interacellular catalytic domains (D1D2) of PTPRS were cloned into a pET28a vector; made in house; host or cells: E. coli BL21
# T1 sequence (Q13332 1304-1948 limits assumed): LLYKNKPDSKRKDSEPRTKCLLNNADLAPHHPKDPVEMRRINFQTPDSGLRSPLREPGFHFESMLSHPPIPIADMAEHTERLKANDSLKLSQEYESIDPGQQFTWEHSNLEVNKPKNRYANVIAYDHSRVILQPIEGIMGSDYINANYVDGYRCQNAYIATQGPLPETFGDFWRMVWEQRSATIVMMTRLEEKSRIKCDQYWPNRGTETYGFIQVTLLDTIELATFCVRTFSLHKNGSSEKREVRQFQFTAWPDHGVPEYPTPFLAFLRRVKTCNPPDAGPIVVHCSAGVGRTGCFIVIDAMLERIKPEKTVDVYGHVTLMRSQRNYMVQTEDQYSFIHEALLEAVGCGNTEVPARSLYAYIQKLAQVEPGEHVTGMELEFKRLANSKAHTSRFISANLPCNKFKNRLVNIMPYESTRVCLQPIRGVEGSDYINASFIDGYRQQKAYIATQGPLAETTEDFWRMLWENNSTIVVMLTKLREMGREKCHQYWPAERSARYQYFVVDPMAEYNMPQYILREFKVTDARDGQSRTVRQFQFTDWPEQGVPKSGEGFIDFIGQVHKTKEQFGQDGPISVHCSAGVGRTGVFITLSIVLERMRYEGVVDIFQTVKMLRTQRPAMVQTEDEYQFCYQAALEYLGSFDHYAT
# Experimental: The two interacellular catalytic domains (D1D2) of PTPRS were cloned into a pET28a vector and overexpressed in E. coli BL21 and purified as described in Jeon T J, et al. Structure of the Catalytic Domain of Protein Tyrosine Phosphatase Sigma in the Sulfenic Acid Form. Molecules and Cells. 2013; 36(1):55-61. doi:10.1007/s10059-013-0033-x. Enzymatic activity of PTPRS was assayed using a modified version of the Malachite Green Assay (described in Lorenz U. Protein Tyrosine Phosphatase Assays. Current protocols in immunology/edited by John E Coligan. [et al]. 2011; CHAPTER:Unit-11.7. doi:10.1002/0471142735.im1107s93) and the Tyrosine Phosphatase Assay Kit (Promega Coorperation). Unless stated otherwise, standard assays were carried out using 50 nM PTPRS protein in 1× Buffer (10 mM Tris, 5 mM MgCl2, 10 mM NaCl, 0.02% Tween) and Tyr Phosphopeptide as substrate (100 uM for FIG. 1 and 50-1200 uM in FIG. 2). Catalytic domains D1D2 were preincubated with the test compound or control for 15 min in the wells of a 96 well plate before the addition of 100 uM Tyr Phosphopeptide (DADA(pY)LIPQQG).
# For IC50 determination, rates normalized relative to uninhibited controls (DMSO) were plotted against compound concentration and fitted using a four-parameter nonlinear regression curve fit ((y=[(A−D) (1+{xC−1}B)−1]+D), (Prism 6.0, Graphpad Software). For mechanism studies and determination of the enyzme's Km and Vmax, data were analyzed using a nonlinear regression fit according to classical Mechaelis-Menten kinetics model Y=Vmax*X/(Km+X) (Prism 6.0, Graphpad Software).
# Rac1 [2] = assay: Rac1 signaling in HSCs (BM KSL cells expressing Rac1 GTP, FIG. 1); type: cell-based
# From the text: (§1) A) CFU-GEMMs produced by TSF media vs. TSF+GJ001 (p=0.001). B) Percentage of BM KSL cells expressing Rac1 GTP (p=0.008). C) Survival of mice irradiated with 750 cGy followed by treatment with DJ001 or vehicle (p=0.0007). D) % BM KSL cells (blue) and % ckit^+sca-1^−lin^− progenitors (gray) at day+21 in irradiated mice.
# Rac1 [3] = assay: Rac1 activation assay (G-LISA); type: cell-based; conditions: cells incubated 2 minutes at 1 and 10 μg/mL
# Experimental: Cell cultures were incubated with each tested compound for 2 minutes at concentrations of 1 and 10 μg/mL, after which the cells were tested for Rac1 activation using a G-LISA activation assay. The cells were lysed and the lysates introduced into wells containing Rac-GTP-binding protein, then sequentially incubated with anti-Rac1 antibody and a horseradish peroxidase-linked secondary antibody. The amount of horseradish peroxidase was then quantitated to evaluate the Rac1 activation potency of each compound studied.
# irradiated mice = assay: Survival and HSC regeneration of irradiated mice; type: in vivo; conditions: for Survival of irradiated mice: irradiated mice (DJ001: 750 cGy, lethal dose)
# From the text: as §1
# [4] = test system: hematopoietic colony formation; assay: Hematopoietic colony formation; type: cell-based
IC50 [1],Structure (SMILES),Rac1 Activation (Rac1 [3]),other results
,O=C(/C=C\Nc1cccc(F)c1)c1ccccc1 [DJ002],no,
,Cc1cccc(N/C=C\C(=O)c2ccccc2)c1 [DJ004],yes,
,COc1cccc(N/C=C\C(=O)c2ccccc2)c1 [DJ005],no,
3.03 µM,CC(=O)c1cccc(N/C=C\C(=O)c2ccccc2)c1 [DJ006],no,
,O=C(/C=C\Nc1cccc(-c2ccccc2)c1)c1ccccc1 [DJ007],no,
,CN(C)c1cccc(N/C=C\C(=O)c2ccccc2)c1 [DJ008],no,
1.37 µM,O=C(/C=C\Nc1cc(F)cc(F)c1)c1ccccc1 [DJ009],yes,
,Cc1cc(C)cc(N/C=C\C(=O)c2ccccc2)c1 [DJ011],yes,
,COc1cc(N/C=C\C(=O)c2ccccc2)cc(OC)c1 [DJ012],yes,
,O=C(/C=C\Nc1ccccc1)c1ccccc1 [DJ013],yes,
,CC(C)(C)[Si](C)(C)Oc1cccc(N/C=C\C(=O)c2ccccc2)c1 [DJ014],yes,
1.39 µM,O=C(/C=C\Nc1cccc(O)c1)c1ccccc1 [DJ015],yes,
,CN(C)S(=O)(=O)c1cccc(N/C=C\C(=O)c2ccccc2)c1 [DJ016],no,
,CCCCN/C=C\C(=O)c1ccccc1 [DJ017],no,
,O=C(/C=C\NCc1ccco1)c1ccccc1 [DJ018],no,
,CC(C)(C)N/C=C\C(=O)c1ccccc1 [DJ019],no,
0.91 µM,O=C(c1ccccc1)c1ccccc1Nc1cccc([N+](=O)[O-])c1 [DJ027],,
1.83 µM,O=C(/C=C\Nc1cc(C(F)(F)F)cc(C(F)(F)F)c1)c1ccccc1 [DJ030],,
0.95 µM,Cc1cccc(C(=O)/C=C\Nc2cccc(C(F)(F)F)c2)c1 [DJ033],,

Structure (SMILES),IC50 [1],Rac1 Activation (Rac1 [3]),other results
O=C(/C=C\Nc1cccc([N+](=O)[O-])c1)c1ccccc1 [DJ001],1.43 µM,yes,"Mechanism of inhibition (substrate titration of PTPσ, Vmax and Km) ([1]; substrate titration, Michaelis-Menten fit): classical noncompetitive inhibitor; Rac1 signaling in HSCs (Rac1 [2]): activates Rac1 signaling in HSCs; HSC regeneration in irradiated mice (irradiated mice; irradiated mice): accelerates HSC regeneration in irradiated mice; Survival of irradiated mice (irradiated mice): dramatically increases mice survival following lethal dose irradiation"
O=C(/C=C\Nc1cccc(C(F)(F)F)c1)c1ccccc1 [DJ003],1.06 µM,yes,Hematopoietic colony formation [4]: increases hematopoietic colony formation; Survival of irradiated mice (irradiated mice): improves survival of irradiated mice
